≈ marks a conversion by molar mass, not a printed value. Entries after “also recorded” stand apart in the source; their conditions may differ.
Tests used:
[1] = tested on: Shigella flexneri 4B JS 11811; test: Antimicrobial spectrum in 0.5% peptone agar; assay type: cell-based; details: 4BJS11811, read-out: Minimum Growth Inhibition Concentration
Solubility in solvents = assay type: physicochemical
Gram-positive bacteria = test: Antimicrobial spectrum, summary; assay type: cell-based; details: 0.5% peptone agar; words
[2] = tested on: Klebsiella pneumoniae PCI 602; test: Antimicrobial spectrum in 0.5% peptone agar; assay type: cell-based; details: PCI602, read-out: Minimum Growth Inhibition Concentration
[3] = tested on: Shigella dysenteriae JS 11910; test: Antimicrobial spectrum in 0.5% peptone agar; assay type: cell-based; details: JS11910, read-out: Minimum Growth Inhibition Concentration
Sarcina lutea PCI 1001 = test: Antimicrobial spectrum in 0.5% peptone agar; assay type: cell-based; details: Micrococcus luteus, PCI1001, read-out: Minimum Growth Inhibition Concentration
[4] = tested on: Salmonella enteritidis 1891; test: Antimicrobial spectrum in 0.5% peptone agar; assay type: cell-based; details: Salmonella enterica, read-out: Minimum Growth Inhibition Concentration
[5] = Acute toxicity in the mouse; assay type: in vivo; details: iv
Proteus rettgeri GN 311 = test: Antimicrobial spectrum in 0.5% peptone agar; assay type: cell-based; details: Providencia rettgeri, GN311, read-out: Minimum Growth Inhibition Concentration
Proteus rettgeri GN 466 = test: Antimicrobial spectrum in 0.5% peptone agar; assay type: cell-based; details: Providencia rettgeri, GN466, read-out: Minimum Growth Inhibition Concentration
[6] = Carcinostatic activity (general statement); details: words
[7] = Antiviral activity (general statement); details: words, no test described
[8] = tested on: Proteus mirabilis IFM OM-9; test: Antimicrobial spectrum in 0.5% peptone agar; assay type: cell-based; details: IFMOM9, read-out: Minimum Growth Inhibition Concentration
Proteus vulgaris OX 19 = test: Antimicrobial spectrum in 0.5% peptone agar; assay type: cell-based; details: OX19, read-out: Minimum Growth Inhibition Concentration
[9] = tested on: Escherichia coli ML1629 (multi-resistant strain); test: Antimicrobial spectrum in 0.5% peptone agar; assay type: cell-based; details: read-out: Minimum Growth Inhibition Concentration
Candida albicans 3147 = test: Antimicrobial spectrum in 0.5% peptone agar; assay type: cell-based; details: read-out: Minimum Growth Inhibition Concentration
Salmonella typhi T-63 = test: Antimicrobial spectrum in 0.5% peptone agar; assay type: cell-based; details: Salmonella enterica, read-out: Minimum Growth Inhibition Concentration
[10] = tested on: Bacillus subtilis NRRLB-558; test: Antimicrobial spectrum in 0.5% peptone agar; assay type: cell-based; details: NRRLB558, read-out: Minimum Growth Inhibition Concentration
[11] = tested on: Bacillus subtilis PCI 219; test: Antimicrobial spectrum in 0.5% peptone agar; assay type: cell-based; details: PCI219, read-out: Minimum Growth Inhibition Concentration
[12] = tested on: Pseudomonas aeruginosa A3; test: Antimicrobial spectrum in 0.5% peptone agar; assay type: cell-based; details: read-out: Minimum Growth Inhibition Concentration
[13] = tested on: Corynebacterium bovis 1810; test: Antimicrobial spectrum in 0.5% peptone agar; assay type: cell-based; details: read-out: Minimum Growth Inhibition Concentration
[14] = tested on: Mycobacterium smegmatis 607; test: Antimicrobial spectrum in 0.5% peptone agar; assay type: cell-based; details: Mycolicibacterium smegmatis, read-out: Minimum Growth Inhibition Concentration
[15] = tested on: Staphylococcus aureus FDA 209P; test: Antimicrobial spectrum in 0.5% peptone agar; assay type: cell-based; details: FDA209P, read-out: Minimum Growth Inhibition Concentration
Escherichia coli K-12 [16] = test: Antimicrobial spectrum in 0.5% peptone agar; assay type: cell-based; details: K12, read-out: Minimum Growth Inhibition Concentration
[17] = tested on: Staphylococcus aureus, Smith strain; test: Antimicrobial spectrum in 0.5% peptone agar; assay type: cell-based; details: read-out: Minimum Growth Inhibition Concentration
Escherichia coli NIHJ = test: Antimicrobial spectrum in 0.5% peptone agar; assay type: cell-based; details: read-out: Minimum Growth Inhibition Concentration
HeLa = test: Anti-HeLa activity; assay type: cell-based; details: 72 hours' culturing
Protocol: *number of cells after 72 hours' culturing in the presence of oxanosine

Escherichia coli K-12 [18] = test: Titer by cup method on peptone-agar plate; assay type: cell-based; details: crystals; titer of culture filtrate designated as 1 u/ml
Protocol: Sakaguchi flasks (500 ml capacity) for a reciprocating type shaking machine were charged with 125 ml of a culture medium (pH value=7.0) comprising 1% of glucose, 1% of glycerol, 1% of sucrose, 0.5% of oat meal, 2% of soybean meal (Prorich supplied by Ajinomoto K.K.), 1% of pressed yeast (supplied by Oriental Kobo Kogyo K.K.), 0.5% of Casamino acid (supplied by Difco Co.) and 0.1% of calcium carbonate, and the culture medium was sterilized at 120° C. for 20 minutes in an autoclave. The culture medium in each was inoculated with one platinum loop of MG265-CF3 (Fermentation Research Institute Deposit No. 5735), and culturing was carried out for 2 days at 28° C. with shaking at 120 rpm. […] (The titer was determined according to the cup method using Escherichia coli K-12 as a test organism on peptone-agar plate, and the titer of the culture filtrate was designated as 1 u/ml.) The filtrate was passed through a column packed with 500 ml of active carbon powder for chromatography (supplied by Wako Junyaku) to absorb the oxanosine on the active carbon. […]

Mouse Leukemia L-1210 = test: Effect against mouse leukemia L-1210, life-prolonging effect; assay type: in vivo, mouse (female, CDF series); details: ip, once each day for 9 days
Protocol: Cells (1×10^5) of leukemia L-1210 were intraperitoneally implanted in each of several groups of 8-week-old female mice of the CDF series (5 mice for each group), a solution of oxanosine in a physiological saline solution was intraperitoneally administered once each day for 9 days, and the carcinostatic effect was evaluated based on the life-prolonging effect (T/C, %).

Gram-negative bacteria = test: Antimicrobial spectrum, summary; assay type: cell-based; details: 0.5% peptone agar; words
[19] = tested on: Micrococcus flavis FDA 16; test: Antimicrobial spectrum in 0.5% peptone agar; assay type: cell-based; details: FDA16, read-out: Minimum Growth Inhibition Concentration
Shigella sonnei JS 11746 = test: Antimicrobial spectrum in 0.5% peptone agar; assay type: cell-based; details: JS11746, read-out: Minimum Growth Inhibition Concentration
Serratia marcescens = test: Antimicrobial spectrum in 0.5% peptone agar; assay type: cell-based; details: read-out: Minimum Growth Inhibition Concentration

## Nc1nc2c(ncn2[C@@H]2O[C@H](CO)[C@@H](O)[C@H]2O)c(=O)o1 [oxanosine]
[1]
  MIC: 6.25 µg/mL (≈ 22 µM)
Solubility in solvents; organic solvents such as ethanol, acetone, ethyl acetate (b147 only), ether, benzene
  Solubility in Solvents: insoluble or only slightly soluble
Solubility in solvents; water, methanol and dimethylsulfoxide
  Solubility in Solvents: Soluble
Gram-positive bacteria
  growth-inhibiting action against Gram-positive bacteria: does not show growth-inhibiting action
[2]
  MIC: > 100 µg/mL
[3]
  MIC: 25 µg/mL (≈ 88 µM)
Sarcina lutea PCI 1001
  MIC: > 100 µg/mL
[4]
  MIC: > 100 µg/mL
[5]; in vivo
  LD50: > 200 mg/kg
[5]; words
  acute toxicity compared with various known nucleic acid type antibiotic substances: lower than those of various known nucleic acid type antibiotic substances
Proteus rettgeri GN 311
  MIC: > 100 µg/mL
Proteus rettgeri GN 466
  MIC: 12.5 µg/mL (≈ 44 µM)
[6]
  carcinostatic activity: has carcinostatic and antiviral activity; also recorded: has carcinostatic and antiviral actions
[7]
  antiviral activity: has carcinostatic and antiviral activity; also recorded: has carcinostatic and antiviral actions
[8]
  MIC: 12.5 µg/mL (≈ 44 µM)
Proteus vulgaris OX 19
  MIC: 25 µg/mL (≈ 88 µM)
[9]
  MIC: 25 µg/mL (≈ 88 µM)
Candida albicans 3147
  MIC: > 100 µg/mL
Salmonella typhi T-63
  MIC: > 100 µg/mL
[10]
  MIC: > 100 µg/mL
[11]
  MIC: > 100 µg/mL
[12]
  MIC: > 100 µg/mL
[13]
  MIC: > 100 µg/mL
[14]
  MIC: > 100 µg/mL
[15]
  MIC: > 100 µg/mL
Escherichia coli K-12 [16]
  MIC: 12.5 µg/mL (≈ 44 µM)
[17]
  MIC: > 100 µg/mL
Escherichia coli NIHJ
  MIC: > 100 µg/mL
HeLa; 0.1 mcg/ml
  Cells: 11.70 × 10^5 /plate
HeLa; 1 mcg/ml
  Cells: 10.31 × 10^5 /plate
HeLa; 10 mcg/ml
  Cells: 8.68 × 10^5 /plate
HeLa; 100 mcg/ml
  Cells: 1.08 × 10^5 /plate
HeLa; Homo sapiens, HeLa, 0.1 mcg/ml, read-out: Percent Inhibition
  inhibition at 0.1 µg/mL: 1.76%
HeLa; Homo sapiens, HeLa, 1 mcg/ml, read-out: Percent Inhibition
  inhibition at 1 µg/mL: 15.3%
HeLa; Homo sapiens, HeLa, 10 mcg/ml, read-out: Percent Inhibition
  inhibition at 10 µg/mL: 31.2%
HeLa; Homo sapiens, HeLa, 100 mcg/ml, read-out: Percent Inhibition
  inhibition at 100 µg/mL: 100%
HeLa; Homo sapiens, HeLa
  IC50: ~30.9 µg/mL (≈ 109 µM)
Escherichia coli K-12 [18]
  titer: 117 u/mg
Mouse Leukemia L-1210; 62.5 μg/mouse/day
  Life-Prolonging Effect (T/C, %): 100%
Mouse Leukemia L-1210; 125 μg/mouse/day
  Life-Prolonging Effect (T/C, %): 120%
Mouse Leukemia L-1210; 250 μg/mouse/day
  Life-Prolonging Effect (T/C, %): 120%
Mouse Leukemia L-1210; 500 μg/mouse/day
  Life-Prolonging Effect (T/C, %): 153%
Mouse Leukemia L-1210; 1000 μg/mouse/day
  Life-Prolonging Effect (T/C, %): 160%
Mouse Leukemia L-1210; words
  life-prolonging effect in leukemia L-1210 tumor-bearing mice: has a life-prolonging effect
Gram-negative bacteria
  growth-inhibiting action against Gram-negative bacteria: relatively strong growth-inhibiting action; also recorded: relatively strong inhibitory activity
[19]
  MIC: > 100 µg/mL
Shigella sonnei JS 11746
  MIC: 25 µg/mL (≈ 88 µM)
Serratia marcescens
  MIC: > 100 µg/mL

— patent US4394446A, “Process for the preparation of the antibiotic oxanosine” (Zaidan Hojin Biseibutsu Kagaku Kenkyu Kai, priority 1980, dated 1983)
